What all share (assay type): cell-based, human
One data set relates to phospho-ERK. Kind of data set: Western analysis of phospho-ERK in RL95-2 cells. As to conditions: compared to control cells; total ERK as reference. Here is the method: When PME-1 was depleted with shRNA, there was a decrease in phospho-ERK compared to control cells.
(§1) 15 μg of protein was used for western analysis. PME-1 antibody (Santa Cruz) and COXIV (Cell Signaling Technologies) were used for detection of proteins and the blots were developed using chemiluminescence (Pierce ECL Western Blotting Substrate—Thermo Scientific) on the GE ImageQuant LAS 4000. For analysis of Akt, ERK, and β-catenin signaling in tissue culture, western analyses were completed as follows. RL95-2 cells stably infected with lentivirus expressing constructs were selected with puromycin (Invivogen). The cells were incubated with either 50 μM Akt inhibitor (LY 294002, Cell Signaling Technologies) or 40 μM ERK inhibitor (V0126, Cell Signaling Technologies) for 1-2 hours at 37° C. 1.5× Laemelli buffer (0.5 M Tris pH6.8, […], 10% sodium dodecyl sulfate, 100 mM EDTA) was used to prepare cell lysates. 20 μg of protein was used for western analysis. Primary antibodies used were: P-Akt (Ser473), P-Akt (Thr308), pan-Akt, P-ERK (Thr202/204), total ERK (Cell Signaling Technologies), PME-1 (Santa Cruz), phospho-β-catenin (Ser45, Cell Signaling Technologies), phospho-β-catenin (Ser33/37/Thr41, Cell Signaling Technologies), β-catenin (Abcam), DcR2 (Abcam), and GAPDH (Abcam). All experiments were repeated several times with similar results.

For another data set, the system named is WNT3 and WNT3A. Briefly: qRT-PCR of WNT3 and WNT3A expression in RL95-2 cells. Particulars: RL95-2, normalized to 18S. As for the experimental part:
Using RL95-2 endometrial cancer cells, we overexpressed PME-1 (FIG. 21A) or depleted PME-1 with shRNA (FIG. 21B) and confirmed that PME-1 was appropriately expressed.
Total RNA was extracted with Qiagen RNAEasy kit from RL95-2 cells. cDNA was synthesized using 500 ng-1 μg of RNA and SuperScript VILO c-DNA mix (Life Technologies). Taqman probes and PCR-mix were purchased from Life Technologies. All samples were run in triplicates. Results are representative of three independent experiments in which genes of interest were normalized to the house-keeping gene, 18S or GAPDH, where fold-change was calculated using the ddCt method.
A general note: Real-time PCR tracks product formation cycle by cycle.

The subject of data set [1] is RL95-2 cells. Kind of data set: Immunofluorescence for phosphorylated histone H3 (mitotic cells). As to conditions: −PME-1 cells compared to control cells. Here is the method:
Endometrial cancer cells were stained for phosphorylated histone H3 on serine 10, a marker of mitotic cells, followed by counterstaining with DAPI (FIG. 12) to identify all cells.
For analysis of patient samples, tissues were blocked for 2 hr with 10% FBS in TBST for at RT, incubated with each primary antibody (together) overnight at 4° C., washed three times for 15 min in TBST, incubated with each secondary fluorescent antibody (together) for 1 hr at RT, washed again as above, stained with DAPI and mounted with cover-slips using vectashield mounting media (Vector Labs). Primary antibodies used were for PME-1 (Santa Cruz), E-cadherin (Millipore), and vimentin (Genscript). 1×10^3RL95-2 cells were plated on a chamber slide and were incubated overnight at 37° C. Slides were fixed with 4% paraformaldehyde (PFA) on ice for two hours. The cells were incubated with the primary antibody to Histone 3 (pH3) phosphorylated at Ser10 (1:200, Cell Signaling Technologies) overnight and developed with the secondary anti-rabbit Alexa-Fluor 555 antibody (Cell Signaling Technologies). DAPI was used as a nuclear counter-stain (Sigma Aldrich). Images were taken with the Nikon Eclipse TE2000 at 20×.

The subject of a further data set is ECC-1 cells. Briefly: Foci formation analysis in ECC-1 cells. As to conditions: 10 days. Here is the method:
We performed a foci formation analysis by transfecting (i) empty FLAG vector, (ii) FLAG-PPP2CA, (iii) FLAG-PPP4C, or (iv) FLAG-PPP6C into ECC-1 cells that stably expressed either (i) shSCR (non-targeting shRNA, black bars) or (ii) shPPME1 (depletes PME-1 levels, white bars) (FIG. 24).
(§2) 1,000 cells were plated in a six well tissue culture dish in selection media (to include 5 μg/ml puromycin) (InvivoGen). Cells were allowed to adhere and grow in a 5% CO2, 37° C. incubator for 10 to 14 days. Media was replaced every fourth day. Cells were stained with 1% crystal violet (Sigma Aldrich) for five minutes and rinsed with PBS. Colonies were counted and data is presented as the percentage of change compared to the control. All Experiments were repeated at least three times.

The test system of a further data set is phospho-Akt. Briefly: Western analysis of Akt phosphorylation in RL95-2 cells. As to conditions: PME-1 knocked down. As for the experimental part:
We observed a similar trend for the Akt signaling pathway. There was an increase in phosphorylation of Akt on threonine 308 (T308) when PME-1 was over-expressed compared to control. There was a decrease in phosphorylation of Akt when PME-1 was knocked down (FIG. 18B). PME-1 over-expression specifically increases the phosphorylation of Akt on T308, but not serine 473 (S473). Importantly, when cells were incubated with upstream inhibitors of Akt phosphorylation (LY294002), there was a decrease in the phospho-forms (FIGS. 18A and 18B), as expected.
as §1, with “20 μg of protein was used for western analysis. Primary antibodies used were: P-Akt (Ser473), P-Akt (Thr308), pan-Akt, P-ERK (Thr202/204), total ERK (Cell Signaling Technologies), PME-1 (Santa Cruz), phospho-β-catenin (Ser45, Cell Signaling Technologies), phospho-β-catenin (Ser33/37/Thr41, Cell Signaling Technologies), β-catenin (Abcam), DcR2 (Abcam), and GAPDH (Abcam). All experiments were repeated several times with similar results.” left out

In data set [2] the test system is RL95-2 cells. Briefly: Foci forming assay in RL95-2 cells. Particulars: RL95-2, PME-1 depleted, compared to control cells. As for the experimental part:
A foci forming assay was used in this study to monitor cell growth. Equal amounts of cells were plated and they were allowed to grow for a determined period of time (see Materials and Methods section for details). The foci that were formed were then stained with the crystal violet dye. Cells were washed […] with PBS prior to visualization. Numbers of foci were counted and results were averaged among different experiments.
To determine if the loss of active PME-1 accounted for the observed decrease in foci formation, we first treated RL95-2 cells with siRNA against the 3′-UTR of PPME1 to decrease endogenous levels of PME-1. […] The S156A PME-1 mutant is not capable of demethylating its target, PP2A.
as §2

Another data set has as its system PP2A. Briefly: PP2A phosphatase assay on RL95-2 whole cell extract. As to conditions: RL95-2 cells, 500 μg whole cell extract, vs non-targeting control. As for the experimental part:
Because PME-1 is a known inhibitor of PP2A, we confirmed in this study that depletion of PME-1 by siRNA led to an increase in PP2A activity in cells. To do so, we treated RL95-2 cells with either non-targeting siRNA (Control) or siRNA against PPME1. PP2A activity was monitored using a phosphatase assay (R&D Systems Duo IC Set phosphatase assay kit). In the phosphatase assay, we used 500 μg of whole cell extract and followed the manufacturer's recommendations.
Whole cell lysates were used with the DuoSet IC PP2A Phosphatase Assay Kit (R&D Systems). Procedure was carried out as per kit instructions with 500 μg protein and the absorbance was measured at 620 nm. The assay was repeated twice with similar results.

For the substance “shPPME1 no. 2: shRNA targeting PPME1, SEQ ID NO: 2: GCAGCGATTATTAGTAGAGTT, bp 289-309; used for all subsequent experiments (guide GCAGCGATTATTAGTAGAGTT; listed as Homo sapiens)”, in the data set on phospho-ERK, the phospho-ERK result is “decrease”. In addition, in the data set on WNT3 and WNT3A, the “WNT3 and WNT3A expression” value was “significantly decreased”. The “decreased proliferation (phospho-histone H3 positive cells)” value in the data set on RL95-2 cells [1] is listed as around 30%. In addition, the foci formation entry with ECC-1 cells (ECC-1, empty FLAG vector, vs shSCR control) was “significant decrease”; with ECC-1 cells (ECC-1 transfected with PP2A, PP4 or PP6, vs shSCR), “significant decrease”. Besides, the “phosphorylation of Akt” value with phospho-Akt is “decrease”. The decrease in foci in the data set on RL95-2 cells [2] was determined as 75%. In addition, the “increase in PP2A activity” value with PP2A was found to be 30 fold.

For the origin of these results see US20200190592A1, “PME-1 AS A BIOMARKER TO PREDICT AND DIAGNOSE AN INCREASED RISK OF ENDOMETRIAL CANCER AND GENE SILENCING OF PME-1 TO INHIBIT EPITHELIAL TO MESENCHYMAL TRANSITION” (Medical Diagnostic Laboratories, L.L.C., priority 2018, published 2020).
